From patent publication EP1322622B1, “NEW N, N'-DISUBSTITUTED BENZIMIDAZOLONE DERIVATIVES WITH AFFINITY AT THE SEROTONIN AND DOPAMINE RECEPTORS” (Sprout Pharmaceuticals, Inc., priority 2000, dated 2002) come the findings set out here.

One assay concerns the target T1, 5-HT1A human receptors (Homo sapiens, UniProt P08908).
T1 construct: expressed in transfected cells; host or cells: CHO cells
T1 sequence (P08908 1-422): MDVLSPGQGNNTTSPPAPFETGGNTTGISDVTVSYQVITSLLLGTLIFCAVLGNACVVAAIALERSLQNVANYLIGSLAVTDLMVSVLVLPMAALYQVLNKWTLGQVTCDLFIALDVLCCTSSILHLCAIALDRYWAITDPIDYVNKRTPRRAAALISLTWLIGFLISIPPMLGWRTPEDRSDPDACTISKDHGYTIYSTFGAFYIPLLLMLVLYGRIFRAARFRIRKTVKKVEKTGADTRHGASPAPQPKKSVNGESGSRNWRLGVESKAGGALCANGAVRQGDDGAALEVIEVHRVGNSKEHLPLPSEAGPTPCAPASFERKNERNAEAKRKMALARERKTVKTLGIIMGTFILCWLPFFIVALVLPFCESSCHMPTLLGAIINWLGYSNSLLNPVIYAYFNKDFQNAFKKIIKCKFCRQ
The assay can be described thus: 5-HT1A Radioligand Receptor Binding Assay ([3H]-8-OH-DPAT, CHO cell membranes). Conditions: for IC50: [3H]-8-OH-DPAT displacement, CHO membranes, read-out: 5-HT1A receptor binding IC50; for inhibition at 0.1 µM: compound at 10^-7 M, singlicate, [3H]-8-OH-DPAT 0.6-0.7 nM, read-out: 5-HT1A receptor binding assay % inhib. (10^-7 M).

In another assay the target is T2, CHO/5-HT1A cells (Homo sapiens, UniProt P08908).
T2 construct: expressed in transfected cells; host or cells: CHO/5-HT1A cells
T2 sequence (P08908 1-422): T1 sequence (P08908 1-422)
The assay can be described thus: 5-HT1A Functional assay (cAMP). The format is cell-based. The following applies: 10 µM compound; % inhibition of the cAMP accumulation induced by 10 µM FSK; read-out: 5-HT1A cAMP % inhib. The protocol:
CHO/5-HT1A cells were random seeded at a density of about 200,000/well in 24 well plates the day prior to the experiment. On the day of the experiment, cells were pretreated for 15 min at 37 °C with 500 µM isobuthylmethylxantine (IBMX) dissolved in culture medium without serum. Wells were then divided in different groups in duplicate as follows: control, 10 µM FSK, 10 µM FSK + 1 µM 5-HT as positive standard and 10 µM FSK + 10 µM of the different compound under evaluation. Sample solutions were added and incubated for additional 15 min at 37 °C. After incubation, medium was aspirated and the reaction stopped by adding 200 µl of lysis buffer. Plates were shaken for 5 min, then the lysate was removed and samples were stored at 4 °C until the day of the assay. For the cAMP evaluation, samples were properly diluted and the cAMP content was measured by an enzymeimmunoassay system.
For orientation: cAMP levels reflect the balance of adenylyl cyclase and phosphodiesterase activity.

Another assay addresses T3, D4 human receptors (Homo sapiens, UniProt P21917).
T3 construct: expressed in transfected cells; host or cells: CHO cells
T3 sequence (P21917 1-419): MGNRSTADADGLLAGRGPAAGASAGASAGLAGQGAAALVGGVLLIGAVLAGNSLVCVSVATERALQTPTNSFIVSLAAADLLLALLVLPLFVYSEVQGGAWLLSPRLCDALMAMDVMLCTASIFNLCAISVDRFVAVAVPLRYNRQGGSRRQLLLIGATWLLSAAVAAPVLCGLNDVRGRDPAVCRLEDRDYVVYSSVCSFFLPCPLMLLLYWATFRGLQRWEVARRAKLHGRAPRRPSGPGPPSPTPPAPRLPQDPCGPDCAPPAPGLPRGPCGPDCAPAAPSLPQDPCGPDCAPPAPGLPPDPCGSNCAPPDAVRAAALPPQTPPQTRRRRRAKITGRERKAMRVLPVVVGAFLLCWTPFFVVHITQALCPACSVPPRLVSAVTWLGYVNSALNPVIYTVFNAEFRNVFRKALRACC
The assay can be described thus: D4 Radioligand Receptor Binding Assay ([3H] YM-09151-2, CHO cell membranes). The following applies: compound at 10^-7 M, singlicate; [3H] YM-09151-2 0.15-0.25 nM; read-out: D4 receptor binding assay % inhib. (10^-7 M).

The target of another assay is T4, 5-HT2A (Rattus norvegicus, UniProt P14842).
T4 construct: Cerebral frontal cortex was homogenized in 10 volumes of ice cold 0.32 M sucrose; from tissue; host or cells: rat cerebral frontal cortex membranes
T4 sequence (P14842 whole entry): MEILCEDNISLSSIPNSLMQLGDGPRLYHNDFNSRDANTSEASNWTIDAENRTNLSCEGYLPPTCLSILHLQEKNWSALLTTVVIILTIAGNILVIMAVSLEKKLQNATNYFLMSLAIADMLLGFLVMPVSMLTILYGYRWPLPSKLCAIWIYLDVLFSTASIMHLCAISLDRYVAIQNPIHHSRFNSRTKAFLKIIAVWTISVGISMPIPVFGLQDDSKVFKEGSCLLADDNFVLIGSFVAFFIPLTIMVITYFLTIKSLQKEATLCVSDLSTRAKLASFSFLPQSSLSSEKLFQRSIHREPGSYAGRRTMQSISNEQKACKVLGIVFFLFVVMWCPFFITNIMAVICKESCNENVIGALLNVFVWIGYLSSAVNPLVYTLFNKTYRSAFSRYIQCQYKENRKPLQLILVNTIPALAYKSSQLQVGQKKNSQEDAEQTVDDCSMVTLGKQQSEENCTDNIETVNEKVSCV
Put plainly: 5HT2A Radioligand Receptor Binding Assay ([3H]-Ketanserin, cerebral frontal cortex membranes). Also on record: species or system Rats. The following applies: 0.5 nM [3H]-Ketanserin. The protocol: Rats (male Sprague-Dawley, 200-250 g) were used. Cerebral frontal cortex was homogenized in 10 volumes of ice cold 0.32 M sucrose in 5 mM Tris-HCl ([…]) buffer. After centrifugation of the homogenate (1,000 x g for 10 min) the supernatant was then recentrifuged at 48,000x g for 15 min.The resulting pellet was gently homogenized in an equal volume of 50mM Tris-HCl buffer (pH 7.4) and incubated at 37° C for 10 minutes. Membranes were then collected by centrifugation as above described and finally resuspended in 10 volumes of 50mM Tris-HCl buffer (pH 7.4).
For displacement experiments membranes (980 µl) were diluted in 50 mM Tris-HCl buffer (pH 7.4) to a final concentration of 1:100 (w/v); the tissue suspension was then incubated at 37 °C for 10 min in a final volume of 1 ml in the presence of 0.5 nM [^3H]-Ketanserin. Non specific binding was determined by incubating similar samples with unlabelled methysergide (100 µM). […] The filters were washed three times with 2 ml ice-cold Tris-HCl buffer and placed in polyethylene vials, then 4 ml of Filter Count scintillation cocktail (Packard) were added. The radioactivity present was counted by liquid scintillation spectrometry.
The affinity values (IC50) for the compounds were obtained by a non linear least squares regression analysis on the basis of a one binding site model.

Turning to `COCCn1c(=O)n(CCCCN2CCN(c3cccc(C(F)(F)F)c3)CC2)c2ccccc21` [compound 9], the IC50 on 5-HT1A human receptors was 0.0099 µM; on 5-HT2A, 0.016 µM. The inhibition at 0.1 µM amounted to 93% at 5-HT1A human receptors and 32% on D4 human receptors. In addition, the inhibition at 10 µM on CHO/5-HT1A cells was 48%.
For `Cc1cccc(N2CCN(CCCCn3c(=O)n(CCO)c4ccccc43)CC2)c1C` [compound 73], the IC50 on 5-HT1A human receptors was found to be 0.013 µM; on 5-HT2A, 0.0009 µM. Besides, the results for the inhibition at 0.1 µM at 5-HT1A human receptors and at D4 human receptors were 91% and 58%, respectively. For the same molecule, the inhibition at 10 µM at CHO/5-HT1A cells was 45%.
In the case of `CCNC(=O)OCCn1c(=O)n(CCCCN2CCN(c3cccc(C(F)(F)F)c3)CC2)c2ccccc21` [compound 83], the IC50 amounted to 0.015 µM at 5-HT1A human receptors and 0.043 µM at 5-HT2A. Moreover, the inhibition at 0.1 µM at 5-HT1A human receptors amounted to 89%; at D4 human receptors, 39%. For the same molecule, on CHO/5-HT1A cells, the inhibition at 10 µM is 64%.
With `COCCn1c(=O)n(CCN2CCN(c3cccc(C(F)(F)F)c3)CC2)c2ccccc21` [compound 168], the IC50 amounted to 0.005 µM on 5-HT1A human receptors and 0.046 µM on 5-HT2A. The inhibition at 10 µM at CHO/5-HT1A cells was 71%.
With `COCCn1c(=O)n(CCN2CCN(c3cccc(C)c3C)CC2)c2ccccc21` [compound 177], at 5-HT1A human receptors, the IC50 was 0.0033 µM and the inhibition at 0.1 µM came to 98%. Also, the inhibition at 10 µM on CHO/5-HT1A cells came to 76%. At 5-HT2A, this molecule came in with an IC50 of 0.0077 µM.
With `O=c1n(CCO)c2ccccc2n1CCN1CCN(c2cccc(Cl)c2)CC1` [compound 183], the IC50 on 5-HT1A human receptors is 0.0072 µM; at 5-HT2A it was 0.027 µM. The results for the inhibition at 0.1 µM at 5-HT1A human receptors and at D4 human receptors were 96% and 62%, respectively. In addition, the inhibition at 10 µM on CHO/5-HT1A cells is 66%.
With `CCNC(=O)OCCn1c(=O)n(CCN2CCN(c3cccc(C(F)(F)F)c3)CC2)c2ccccc21` [compound 206], the IC50 amounted to 0.0021 µM on 5-HT1A human receptors and 0.017 µM at 5-HT2A. For the same molecule, the inhibition at 10 µM at CHO/5-HT1A cells worked out at 80%.
Take `Cc1cccc(N2CCN(CCn3c(=O)n(CCNS(C)(=O)=O)c4ccccc43)CC2)c1C` [compound 254]: the IC50 on 5-HT1A human receptors was determined as 0.0074 µM; on 5-HT2A, 0.065 µM. Besides, the inhibition at 0.1 µM on 5-HT1A human receptors was found to be 85%; on D4 human receptors it was 34%. The inhibition at 10 µM on CHO/5-HT1A cells came to 66%.

A word on the IC50: it is the concentration that gives 50% inhibition.
